Measured values from ChEMBL document CHEMBL1136926 (J Med Chem, 2009).
The source made the active and inactive calls. The rule behind the calls is not given here. Positions of bridges follow the written chain, without caps; N, C: chain ends. Non-standard residues stand in square brackets, D forms with d. Residues, ends and D or L forms follow the SMILES beside them. dPen = CC(C)(S)[C@@H](N)C(=O)O; Orn = NCCC[C@H](N)C(=O)O

Assays:
[1] = target: T1, Urotensin-2 receptor (Rattus norvegicus) (UniProt P49684); conditions: Albino, Aorta
T1 sequence (whole entry): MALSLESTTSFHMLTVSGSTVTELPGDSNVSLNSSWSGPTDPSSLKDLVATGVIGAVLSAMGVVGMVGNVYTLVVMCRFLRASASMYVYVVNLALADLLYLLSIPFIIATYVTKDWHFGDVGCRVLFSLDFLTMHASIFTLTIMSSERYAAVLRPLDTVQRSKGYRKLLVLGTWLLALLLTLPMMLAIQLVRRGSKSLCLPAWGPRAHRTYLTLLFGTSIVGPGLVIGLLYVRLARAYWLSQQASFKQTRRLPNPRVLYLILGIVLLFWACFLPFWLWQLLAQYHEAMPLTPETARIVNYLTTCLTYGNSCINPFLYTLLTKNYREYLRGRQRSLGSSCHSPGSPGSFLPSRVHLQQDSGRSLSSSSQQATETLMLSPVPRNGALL
Description: Agonist activity at UT2 receptor in Albino rat aorta assessed as induction of aortic contraction

[2] = target: T1, Urotensin-2 receptor (Rattus norvegicus); test: Antagonist activity at UT2 receptor in Albino rat aorta assessed as inhibition of […] aortic contraction; format: functional, tissue-based

pEC50 [1]: inactive
pKb [2]: 8.3
SMILES: CC(C)[C@H](NC(=O)[C@@H]1CSSC(C)(C)[C@@H](NC(=O)[C@@H](N)CC(=O)O)C(=O)N[C@@H](Cc2ccccc2)C(=O)N[C@H](Cc2c[nH]c3ccccc23)C(=O)N[C@@H](CCCN)C(=O)N[C@@H](Cc2ccc(O)cc2)C(=O)N1)C(=O)O (H-D[dPen]F[dW][Orn]YCV-OH; disulfide 2-7)
